From patent US8546348B2, “Upregulation of opioid receptors for management” (The Board of Regents of the University of Texas System, priority 2003, dated 2013)
“And” between values parts separate entries of the source, which are not always exact repeats. Equal values may be shown once. Read-outs that look alike come from different tables or passages of the source.

Key:
[1] = test system: high-threshold voltage-dependent Ca^2+ channels in DRG neurons; assay: Perforated patch recording of DAMGO block of Ba2+ currents in cultured DRG neurons; format: cell-based, rat; conditions: for IC50: read-out: apparent affinity for DAMGO inhibition (IC50)
Method: Cells were superfused (2 ml/min) at 23-24° C. with external solution containing 130 mM tetraethylammonium (“TEA”) chloride, 5 mM CsCl, 1.5 mM BaCl2, 1 mM MgCl2, 10 mM Hepes, and 10 mM glucose (pH 7.2, adjusted with TEA-OH; osmolarity, 300 mosM). Patch electrodes (resistance, 2.2-3.5 MΩ) were filled with internal solution containing 100 mM CsMeSO3, 40 mM CsCl, 10 mM Hepes, and 300 μg/ml amphotericin B (pH=7.3 adjusted with CsOH, 320 mosM). The currents were filtered at 2-5 kHz and sampled at 100 μs per point. [D-Ala^2,N-MePhe^4,Gly^5-ol]enkephalin (“DAMGO”) was pressure delivered to the recorded cells through a drug applicator (8).
All data were expressed as mean±SEM. Paw withdrawal latencies obtained from different rats were averaged. Changes before and after morphine treatment within one rat group were analyzed with one-way ANOVA followed by post hoc Newman-Keuls analysis. Antinociceptive responses were expressed as maximum possible effect (“MPE”) by using the relation MPE=(postdrug PWL−baseline PWL)/(cutoff PWL−baseline PWL)×100. Dose-response curves were plotted as MPE vs. dose and fitted with the logistic equation. The doses estimated to produce 50% MPE, A50, and 95% confidence intervals were determined. The dose-response curves for DAMGO in current measurements were fitted with the Hill equation, i.e., response=(max−min)×[IC50/(IC50^n+dose^n)]+min, where max and min are maximal and minimal responses, IC50 is the dose for 50% of the block, and n is the Hill coefficient. The 95% confidence band analysis was used to evaluate the significance of the change in the IC50 and maximal block. To assess the significance of changes between two means, the Student's t test was used. A p<0.05 was considered significant.
It is well established that μ-opioids inhibit high-threshold voltage-dependent Ca^2+ currents in DRG neurons. […] Seven days after the infection, perforated patch whole-cell recordings were performed on the cells. External Ca^2+ was replaced by Ba^2+ to avoid rapid rundown of current responses.

[2] = test system: spared nerve injury (SNI) rats; assay: Mechanical allodynia (von Frey) in SNI rats treated with rAAV-δOR, intrathecal deltorphin or morphine; format: in vivo, rat
Method: Similar method as described before was used to induce inflammation To produce the nerve-injury in the rat paw, spared nerve injury (SNI) in rats was generated by transecting the sural and common peroneal sciatic nerves in the left rat leg while leaving the tibal nerve intact. To induce inflammation in the trigeminal nerve innervated areas, rats were lightly anesthetized with pentobarbital. CFA (10-50 μl) was injected into the rat temporomandibular joint (TMJ) 3-4 weeks after infection of rAAV-dOR. Behavioral experiments were performed 5-14 days after the CFA injection. To induce spare nerve injury in the trigeminal nerve, the infraorbital nerve branch of the maxillary nerve was ligated and the ophthalmic and mandibular nerves were left intact.
δ-opioid receptor expression was enhanced in dorsal root ganglia (DRGs) by injecting rAAV-dOR into the ganglion or into the sciatic nerve or by injecting dOR-FLAG DNA intrathecally. The δ-OR receptor expression was enhanced in the trigeminal ganglon by injecting rAAV-dOR into the trigeminal ganglion or into the maxillary nerve.
Three to four weeks later, the effects of morphine or other analgesic drugs on mechanical allodynia in SNI rats were determined behaviorally. Rat hindpaw withdrawal (PW) thresholds in response to stimulation of Von Frey filaments were measured. Each test consisted of applications of a series of von Frey filaments (ranging from 0.4 to 15.0 g) to the lateral plantar surface of the tested paw until it withdrew or for a maximum of 60 s. To avoid injury during tests, the cutoff strength of the von Frey filament was 15 g. The up and down method described by Chaplan et al. (12) was used to determine the PW threshold. Mechanical threshold or the maximum possible effect (MPE), i.e., ((test−min)/(max−min)]×100%, was used to calculate morphine mechanical analgesic effects.

[3] = test system: injured rats (sciatic nerve ligation); conditions: Kabli and Cahill; cited from earlier work
[4] = test system: rats (inflammatory pain, CFA); assay: Morphine antinociception (MPE, radiant heat) in CFA rats after DRG or sciatic nerve injection of rAAV; format: in vivo, rat; conditions: s.c. morphine, rAAV injected into DRGs
[5] = test system: spared nerve injury (SNI) rats; assay: Mechanical allodynia (von Frey) in spared nerve injury rats, intrathecal morphine, rAAV-μOR; format: in vivo, rat; conditions: intrathecal 1-10 μg, SNI rats without rAAV
[6] = test system: rats (thermal nociceptive responses); assay: Paw withdrawal latency to radiant heat, s.c. morphine, rats with rAAV injected into L4-L5 ganglia; format: in vivo, rat; conditions: 4 mg/kg morphine, non-CFA rats
[7] = test system: rats (thermal hyperalgesia, CFA); assay: Paw withdrawal latency to radiant heat, intrathecal morphine, rats with rAAV injected into the sciatic nerve; conditions: rat, in vivo

SMILES | IC50 ([1]; rAAV-EGFP cells) | percentage of cells responded to DAMGO inhibition ([1]; rAAV-EGFP-treated cells) | maximal block of Ba2+ currents ([1]; rAAV-μOR cells, Hill fit) | IC50 ([1]; rAAV-μOR cells) | percentage of cells responded to DAMGO inhibition ([1]; rAAV-μOR-treated DRG neurons) | percentage of cells responded to DAMGO inhibition ([1]; untreated cells) | IC50 ([1]; untreated cells) | reduction of allodynic responses ([2]; SNI rats) | reduction of allodynic responses ([2]; SNI rats, listed as Deltorphin) | reduction of allodynic responses ([2]; rAAV-δOR treated SNI rats) | time for which the drug is effective in reducing allodynic responses [3] | time at which MPEs peaked [4] | time within which MPEs dissipated [4] | relief of mechanical allodynia [5] | time at which antinociceptive effects reached a maximum [6] | time in which antinociceptive effects dissipated [6] | time after which the effect dissipated [7] | time at which MPE peaked [7]
C[C@@H](NC(=O)[C@@H](N)Cc1ccc(O)cc1)C(=O)NCC(=O)N(C)[C@@H](Cc1ccccc1)C(=O)NCCO [DAMGO, [D-Ala^2,N-MePhe^4,Gly^5-ol]enkephalin] | 0.53 ± 0.03 µM | 54.5% | 31.63% and 31.63±0.03% | 0.17 ± 0.06 µM | 89.2% | 57.1% | 0.64 ± 0.19 µM | – | – | – | – | – | – | – | – | – | – | –
CC(C)[C@H](NC(=O)[C@H](CCC(=O)O)NC(=O)[C@H](Cc1ccccc1)NC(=O)[C@@H](C)NC(=O)[C@@H](N)Cc1ccc(O)cc1)C(=O)N[C@H](C(=O)NCC(=O)O)C(C)C [deltorphin] | – | – | – | – | – | – | – | rather ineffective | ineffective | became effective | 21 days | – | – | – | – | – | – | –
CN1CC[C@]23c4c5ccc(O)c4O[C@H]2[C@@H](O)C=C[C@H]3[C@H]1C5 [morphine] | – | – | – | – | – | – | – | – | – | – | 14 days | 30 to 40 min | 100 to 120 min and 100 min | not effective | 30 to 40 min | 80 to 90 min | 50 min | 15 to 20 min
